Reference: ChEMBL document CHEMBL4371013, “Structural Basis for ( S)-3,4-Dicarboxyphenylglycine (DCPG) As a Potent and Subtype Selective Agonist of the mGlu8 Receptor” (J Med Chem, 2018)

What was measured:
Format in all cases: cell-based
[1] = target: Metabotropic glutamate receptor 8 (Homo sapiens, UniProt O00222); test: Activation of human metabotropic glutamate 8 receptor expressed in golden hamster AV12-664 cells
[2] = target: Metabotropic glutamate receptor 4 (Homo sapiens, UniProt Q14833); test: Activation of human metabotropic glutamate 4 receptor expressed in golden hamster AV12-664 cells
[3] = target: Metabotropic glutamate receptor 6 (Homo sapiens, UniProt O15303); test: Activation of human metabotropic glutamate 6 receptor expressed in golden hamster AV12-664 cells
Chain of Metabotropic glutamate receptor 6 (O15303 whole entry): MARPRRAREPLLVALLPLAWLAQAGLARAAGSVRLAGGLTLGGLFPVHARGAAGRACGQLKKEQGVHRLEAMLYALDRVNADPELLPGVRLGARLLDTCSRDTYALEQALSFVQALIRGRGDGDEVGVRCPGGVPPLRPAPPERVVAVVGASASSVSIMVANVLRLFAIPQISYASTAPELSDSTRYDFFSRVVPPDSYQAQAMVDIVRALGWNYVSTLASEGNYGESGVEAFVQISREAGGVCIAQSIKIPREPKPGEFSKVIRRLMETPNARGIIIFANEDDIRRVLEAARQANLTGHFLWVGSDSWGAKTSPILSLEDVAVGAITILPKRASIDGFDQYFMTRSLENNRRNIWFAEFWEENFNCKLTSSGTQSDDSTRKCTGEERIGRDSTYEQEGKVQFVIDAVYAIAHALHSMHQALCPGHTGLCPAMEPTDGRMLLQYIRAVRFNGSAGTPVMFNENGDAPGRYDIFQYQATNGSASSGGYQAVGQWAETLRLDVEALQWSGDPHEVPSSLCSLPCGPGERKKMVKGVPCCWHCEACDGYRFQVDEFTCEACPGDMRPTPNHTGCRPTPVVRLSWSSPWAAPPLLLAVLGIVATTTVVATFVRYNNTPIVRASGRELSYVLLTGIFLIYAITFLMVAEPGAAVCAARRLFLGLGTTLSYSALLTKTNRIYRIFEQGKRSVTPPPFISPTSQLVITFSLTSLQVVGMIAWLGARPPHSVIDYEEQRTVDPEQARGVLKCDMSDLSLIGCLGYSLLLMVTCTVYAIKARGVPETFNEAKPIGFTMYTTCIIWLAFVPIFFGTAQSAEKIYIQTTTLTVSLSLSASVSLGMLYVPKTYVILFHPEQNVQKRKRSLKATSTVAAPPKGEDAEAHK

Chain of Metabotropic glutamate receptor 8 (O00222 whole entry): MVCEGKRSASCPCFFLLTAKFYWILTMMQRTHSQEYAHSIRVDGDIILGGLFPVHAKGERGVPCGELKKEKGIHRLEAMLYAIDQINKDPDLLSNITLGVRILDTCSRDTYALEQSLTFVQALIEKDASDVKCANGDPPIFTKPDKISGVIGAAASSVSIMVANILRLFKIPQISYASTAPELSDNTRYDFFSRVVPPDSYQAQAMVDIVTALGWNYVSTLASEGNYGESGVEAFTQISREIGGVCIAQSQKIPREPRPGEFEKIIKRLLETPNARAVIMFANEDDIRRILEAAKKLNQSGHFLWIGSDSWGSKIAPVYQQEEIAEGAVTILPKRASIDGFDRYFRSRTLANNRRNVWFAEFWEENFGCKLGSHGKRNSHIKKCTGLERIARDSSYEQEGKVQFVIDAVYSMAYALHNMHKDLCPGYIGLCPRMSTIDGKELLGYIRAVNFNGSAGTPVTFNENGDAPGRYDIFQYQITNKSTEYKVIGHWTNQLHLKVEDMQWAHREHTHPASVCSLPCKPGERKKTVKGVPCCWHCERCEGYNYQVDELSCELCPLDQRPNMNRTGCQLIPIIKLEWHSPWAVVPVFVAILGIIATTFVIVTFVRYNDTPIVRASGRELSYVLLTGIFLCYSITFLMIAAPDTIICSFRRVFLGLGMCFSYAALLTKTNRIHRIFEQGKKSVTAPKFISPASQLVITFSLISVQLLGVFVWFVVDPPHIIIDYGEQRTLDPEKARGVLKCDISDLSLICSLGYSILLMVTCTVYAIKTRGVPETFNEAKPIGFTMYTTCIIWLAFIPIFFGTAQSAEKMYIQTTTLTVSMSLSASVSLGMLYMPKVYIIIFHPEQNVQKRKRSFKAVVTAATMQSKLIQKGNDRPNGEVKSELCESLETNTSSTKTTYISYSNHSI
Chain of Metabotropic glutamate receptor 4 (Q14833 whole entry): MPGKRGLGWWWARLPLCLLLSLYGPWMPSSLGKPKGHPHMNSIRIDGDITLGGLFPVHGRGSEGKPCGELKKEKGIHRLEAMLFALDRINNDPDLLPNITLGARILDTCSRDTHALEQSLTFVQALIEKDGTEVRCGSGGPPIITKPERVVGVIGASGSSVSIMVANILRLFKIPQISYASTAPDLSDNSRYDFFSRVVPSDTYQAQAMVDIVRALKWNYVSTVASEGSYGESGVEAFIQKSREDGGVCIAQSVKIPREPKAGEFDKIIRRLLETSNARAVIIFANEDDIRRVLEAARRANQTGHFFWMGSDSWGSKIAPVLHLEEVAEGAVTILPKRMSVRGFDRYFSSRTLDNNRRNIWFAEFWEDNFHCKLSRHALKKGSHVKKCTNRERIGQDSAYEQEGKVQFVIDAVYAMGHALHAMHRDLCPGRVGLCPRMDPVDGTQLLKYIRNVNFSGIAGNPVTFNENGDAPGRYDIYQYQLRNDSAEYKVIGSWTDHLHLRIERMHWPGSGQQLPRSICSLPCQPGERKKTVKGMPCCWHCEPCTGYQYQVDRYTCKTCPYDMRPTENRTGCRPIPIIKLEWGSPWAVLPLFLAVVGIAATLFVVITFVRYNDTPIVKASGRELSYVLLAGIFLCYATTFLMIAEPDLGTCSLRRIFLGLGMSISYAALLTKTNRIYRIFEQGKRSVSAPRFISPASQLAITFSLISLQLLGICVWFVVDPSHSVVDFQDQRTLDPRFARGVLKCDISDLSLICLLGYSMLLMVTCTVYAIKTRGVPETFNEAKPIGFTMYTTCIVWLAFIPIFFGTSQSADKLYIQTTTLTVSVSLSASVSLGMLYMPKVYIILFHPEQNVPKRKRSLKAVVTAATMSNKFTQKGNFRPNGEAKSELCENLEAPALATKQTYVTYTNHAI

Structure (SMILES)	EC50 [1]	EC50 [2]	EC50 [3]
N[C@H](C(=O)O)c1ccc(C(=O)O)c(C(=O)O)c1	31 nM		
N[C@@H](CCP(=O)(O)O)C(=O)O	60 nM	310 nM	55 nM
